Data set [1] can be described thus: MTT cytotoxicity (CC50) in VERO cells. Format: cell-based. The note with it: African green monkey (Cercopithecus aethiops). As for the experimental part:
The CC50 was determined via the 3-(4,5-dimethyl-2-thiazolyl)-2,5-diphenyl-2H-tetrazolium bromide) (MTT, Sigma-Aldrich) method. For this, 2.5 × 10^4 VERO cells were seeded in 96-well plates for 24 h. […] After the incubation period, an MTT solution (0.5 mg/mL) was added to the cultures, which were then incubated for an additional 3 h at 37 °C. Finally, dimethyl sulfoxide was added, and the absorbance was read at 450 nm in a Bio-Rad Benchmark® microplate reader. Cultures without extract, fractions, or compounds were processed as positive controls for viability. […] Each experimental condition was tested in triplicate in two independent experiments (n = 6).
To determine the CC50 and EC50, a regression analysis was performed with Probit Software. The SI of each molecule was determined from the relationship between the CC50 and EC50, using the formula SI = CC50/EC50. To compare the number of infectious viral particles released between the cells treated with each fraction or compound (for both the pre- and post-treatment strategies) and the untreated cells, Student’s t-test was used. […] Each experimental condition was tested in triplicate in two independent experiments (n = 6) to guaranty the statistical analysis and the figures show the average of those experiments.

The subject of data set [2] is DENV-2/NG. As to the kind of experiment: EC50 determination: VERO cells infected with DENV-2/NG in the presence of treatment, multiwell plate focus assay. Type of data set: cell-based. The note with it: for EC50: Dengue virus, DENV2, Vero, read-out: Effective concentration 50% (EC50); for Selectivity index (SI): SI = CC50/EC50, VERO cells infected with DENV-2/NG. As for the experimental part: The SI of each ethanolic extract, fraction, or compound was calculated from the relationship between the cytotoxic concentration 50% (CC50) and effective concentration 50% (EC50). The CC50 was determined via the 3-(4,5-dimethyl-2-thiazolyl)-2,5-diphenyl-2H-tetrazolium bromide) (MTT, Sigma-Aldrich) method. For this, 2.5 × 10^4 VERO cells were seeded in 96-well plates for 24 h. Subsequently, serial dilutions of the ethanolic extracts (7.8 μg/mL to 1000 μg/mL), fractions (6.25 to 400 μg/mL), and characterized compounds (6.25 to 400 μg/mL) were performed and incubated with the cells for 48 h. After the incubation period, an MTT solution (0.5 mg/mL) was added to the cultures, which were then incubated for an additional 3 h at 37 °C. Finally, dimethyl sulfoxide was added, and the absorbance was read at 450 nm in a Bio-Rad Benchmark® microplate reader. Cultures without extract, fractions, or compounds were processed as positive controls for viability. The CC50 was calculated as the extract concentration that reduced cell viability by 50% using regression analysis (Probit software). Each experimental condition was tested in triplicate in two independent experiments (n = 6). To calculate the EC50, 2.5 × 10^4 VERO cells were seeded in 96-well plates for 24 h. At 24 h, serial dilutions of each ethanolic extract (7.8 μg/mL to 1000 μg/mL), fraction (6.25 to 400 μg/mL), and characterized compound (6.25 to 400 μg/mL) were mixed with the DENV-2/NG strain (at a multiplicity of infection (MOI = 1) and added to the cell monolayers for 2 h. At 2 h post-inoculation (hpi), the mixtures were removed, and the same serial dilutions of the extracts, fractions, or compounds were added again and incubated for 24 h. Finally, the supernatants were collected and stored at − 70 °C until performing the multiwell plate focus assay.
(§1) A total of 2.5 × 10^4 cells/well were seeded in 96-well plates. The cells were inoculated the following day with serial dilutions (10^− 1 to 10^− 6) of the supernatants from the EC50 experiments for 2 h. Next, the inoculum were removed, and 1.5% carboxymethylcellulose (Sigma-Aldrich) prepared in DMEM (Gibco®) supplemented with 2% FCS (Gibco®) was added, followed by incubation at 37 °C in a 5% CO 2 atmosphere. On the third day, the cells were fixed with a methanol-acetone (1:1) solution for 10 min, washed three times with PBS, and permeabilized with 0.1% Triton X-100 for 30 min, after which nonspecific site blocking was performed with 10% FBS in PBS. Then, DENV anti-envelope monoclonal antibody (mAb) was diluted 1:500 with PBS containing 10% FCS (Gibco®) was added, followed by incubation for 1 h at 37 °C. After washing with PBS, the plates were incubated for 30 min with an anti-mouse IgG secondary antibody conjugated to peroxidase. Finally, the reactions were stained with 3-amino-9-ethylcarbazole (AEC, Sigma-Aldrich), and the number of foci in each well were counted.
To determine the CC50 and EC50, a regression analysis was performed with Probit Software. The SI of each molecule was determined from the relationship between the CC50 and EC50, using the formula SI = CC50/EC50. To compare the number of infectious viral particles released between the cells treated with each fraction or compound (for both the pre- and post-treatment strategies) and the untreated cells, Student’s t-test was used. All statistical analyses were performed using the Prism® 7.01 for Windows™ package (GraphPad Software, San Diego, CA), considering differences statistically significant at p < 0.05 in all cases. Each experimental condition was tested in triplicate in two independent experiments (n = 6) to guaranty the statistical analysis and the figures show the average of those experiments.

The test system of data set [3] is DENV-2/NG. As to the kind of experiment: Antiviral effect on virus cell entry (pre-treatment strategy). The note with it: for inhibition at 50 µg/mL: Dengue virus, DENV2, Vero. Type of data set: cell-based. As for the experimental part: as §1
A total of 2.5 × 10^4 VERO cells were seeded in 24-well plates for 24 h, and the fractions (100 μg/mL) or characterized compounds (50 μg/mL) were then added and incubated with the cells for an additional 24 h (pre-treatment strategy). Subsequently, treatment was withdrawn, and a viral inoculum (DENV-2/NG at an MOI = 1) was added and incubated for 2 h. Subsequently, the virus was removed, and fresh medium was added for an additional 48 h, after which the supernatants were collected and stored at − 70 °C until further processing via the multiwell plate focus assay. For each fraction and compound, two independent experiments were performed each with two replicates (n = 4). Heparin (Sigma-Aldrich) served as the positive control for viral inhibition.
(§2) Fig. 4 Antiviral effects of the compounds derived from the Pg- YP-I-22C fraction on some steps of the DENV replication cycle. The cells were treated with the compounds for 48 h and then infected with DENV (MOI = 1). This infection strategy (pre-treatment) is represented by the dark bars. In addition, independent cell cultures were infected with DENV (MOI = 1) and then treated with the compounds (post-treatment strategy; indicated by clear bars). The error bars correspond to the SEM. The asterisks indicate cases with statistically significant differences (Student’s t-test; p < 0.05) in relation to the control without treatment

The subject of data set [4] is DENV-2/NG. The data set is described as follows: Antiviral effect after virus cell entry (post-treatment strategy). Format: cell-based. The note with it: for inhibition at 50 µg/mL: Dengue virus, DENV2, Vero, 48 h; for Viral inhibition percentage, post-treatment strategy: VERO cells infected with DENV-2/NG MOI = 1, then compounds 50 μg/mL for 48 h. As for the experimental part: as §1
A total of 2.5 × 10^4 VERO cells were seeded in 24-well plates for 24 h, and a viral inoculum (DENV-2/NG at an MOI = 1) was then added and incubated for 2 h. Subsequently, the inoculum was removed, and the fractions (100 μg/mL) or characterized compounds (50 μg/mL) were added and incubated with the cells for an additional 48 h (post-treatment strategy). Next, the supernatants were collected and stored at − 70 °C until further processing via the multiwell plate focus assay. For each fraction or compound, two independent experiments were performed each with two replicates (n = 4). Suramin served as the positive control for viral inhibition.
as §2

For a further data set, the system named is DENV-2. The note with it: cited from earlier work.
Setting [5] is: VERO cells, 48 h incubation, MTT, unit given, not in Table 1, read-out: Cytotoxic concentration 50% (CC50).
Setting [6] is: read-out: Viral inhibition percentage, pre-treatment strategy, compounds 50 μg/mL added to VERO cells before infection with DENV-2/NG MOI = 1, plate focus assay.
[7] abbreviates: read-out: Viral inhibition percentage, post-treatment strategy, VERO cells infected with DENV-2/NG MOI = 1, then compounds 50 μg/mL for 48 h, plate focus assay.

Each structure is given as a SMILES string. ≈ marks a conversion by molar mass, not a printed value. Read-outs that look alike come from different tables or passages of the source.

As to `O=C(O)c1cc(O)c(O)c(O)c1` [Gallic Acid, gallic acid], the CC50 at 48 h in data set [1] (setting [5]) came out at 543 µg/mL (≈ 3190 µM). Besides, the EC50 in the data set on DENV-2/NG [2] was 25.8 µg/mL. The “Selectivity index (SI)” value in the data set with DENV-2/NG [2] was 21.1. Also, the inhibition at 50 µg/mL with DENV-2/NG [3] (setting [6]) was 52.6%; in the data set on DENV-2/NG [4] (setting [7]), 67.3%.
In the case of `C[C@@H]1O[C@@H](O[C@H]2[C@H](Oc3cc(O)c4c(c3)O[C@H](c3ccc(O)cc3)CC4=O)O[C@H](CO)[C@@H](O)[C@@H]2O)[C@H](O)[C@H](O)[C@H]1O` [Naringin, naringin], the CC50 at 48 h in data set [1] (setting [5]) is 647 µg/mL (≈ 1110 µM). Moreover, in the data set on DENV-2/NG [2], the EC50 worked out at 47.9 µg/mL and the “Selectivity index (SI)” value was found to be 13.5. Moreover, the inhibition at 50 µg/mL with DENV-2/NG [4] (setting [7]) is 64.5%.
With `O=c1c(O)c(-c2ccc(O)c(O)c2)oc2cc(O)cc(O)c12` [Quercetin, quercetin], the CC50 at 48 h in data set [1] is 660 µg/mL (≈ 2180 µM). The EC50 with DENV-2/NG [2] was 19.2 µg/mL. Moreover, the “Selectivity index (SI)” value in the data set with DENV-2/NG [2] worked out at 34.3. The inhibition at 50 µg/mL in the data set with DENV-2/NG [3] (read-out: Viral inhibition percentage, pre-treatment strategy) was determined as 50%; with DENV-2/NG [4] (read-out: Viral inhibition percentage, post-treatment strategy) it was 100%.
`CC[C@H]1CC2CN3CCc4c([nH]c5ccc(OC)cc45)[C@](C(=O)OC)(C2)[C@H]13` (stereo in doubt) [voacangine]: the “Inhibition of infection in vitro by plant-derived compounds” value with DENV-2 was “greater than 50%”.
As to `Oc1cc(O)c2c(c1)OC(c1ccc(O)c(O)c1)C(O)C2` (stereo not drawn) [Catechin, catechin], the CC50 at 48 h in data set [1] (setting [5]) was 833 µg/mL (≈ 2870 µM). In the data set on DENV-2/NG [2], the EC50 was 33.7 µg/mL and the “Selectivity index (SI)” value turned out to be 24.8. Moreover, in the data set on DENV-2/NG [3] (setting [6]), the inhibition at 50 µg/mL was 100%. In the data set with DENV-2/NG [3] (compounds 50 μg/mL added to VERO cells before infection with DENV-2/NG MOI = 1, plate focus assay), the “Viral inhibition percentage, pre-treatment strategy” value was “greater than 90%”. The inhibition at 50 µg/mL in the data set with DENV-2/NG [4] (setting [7]) is 91.8%. Besides, the “Viral inhibition percentage, post-treatment strategy” value in the data set with DENV-2/NG [4] (plate focus assay) is “greater than 90%”.
On to `C=C(C)[C@@H]1CC[C@]2(C)CC[C@]3(C)[C@H](CC[C@@H]4[C@@]5(C)CC[C@H](O)C(C)(C)[C@@H]5CC[C@]43C)[C@@H]12` [lupeol], for which the “Inhibition of infection in vitro by plant-derived compounds” value in the data set on DENV-2 is “greater than 50%”.
As for `Cc1ccc(C(=O)Nc2ccc(S(=O)(=O)O)c3cc(S(=O)(=O)O)cc(S(=O)(=O)O)c23)cc1NC(=O)c1cccc(NC(=O)Nc2cccc(C(=O)Nc3cc(C(=O)Nc4ccc(S(=O)(=O)O)c5cc(S(=O)(=O)O)cc(S(=O)(=O)O)c45)ccc3C)c2)c1` [SURAMIN, suramin, reference compound], in the data set with DENV-2/NG [4] (plate focus assay), the “Viral inhibition percentage, post-treatment strategy” value is listed as “better inhibition”.

(Values after paper PMC6836419, “In vitro and in silico anti-dengue activity of compounds obtained from Psidium guajava through bioprospecting” (BMC Complementary and Alternative Medicine, 2019).)
